Test results from patent US9802960B2 (MILLENNIUM PHARMACEUTICALS, INC., priority 2014, dated 2017).

Each compound was assayed against Human VPS34 (Homo sapiens (Human), UniProt Q8NEB9) (assay: Human VPS34 enzyme assay (Adapta TR-FRET)). Conditions: compound concentration 1.11 μM.
Format: biochemical

Sequence of Human VPS34 (Q8NEB9 whole entry): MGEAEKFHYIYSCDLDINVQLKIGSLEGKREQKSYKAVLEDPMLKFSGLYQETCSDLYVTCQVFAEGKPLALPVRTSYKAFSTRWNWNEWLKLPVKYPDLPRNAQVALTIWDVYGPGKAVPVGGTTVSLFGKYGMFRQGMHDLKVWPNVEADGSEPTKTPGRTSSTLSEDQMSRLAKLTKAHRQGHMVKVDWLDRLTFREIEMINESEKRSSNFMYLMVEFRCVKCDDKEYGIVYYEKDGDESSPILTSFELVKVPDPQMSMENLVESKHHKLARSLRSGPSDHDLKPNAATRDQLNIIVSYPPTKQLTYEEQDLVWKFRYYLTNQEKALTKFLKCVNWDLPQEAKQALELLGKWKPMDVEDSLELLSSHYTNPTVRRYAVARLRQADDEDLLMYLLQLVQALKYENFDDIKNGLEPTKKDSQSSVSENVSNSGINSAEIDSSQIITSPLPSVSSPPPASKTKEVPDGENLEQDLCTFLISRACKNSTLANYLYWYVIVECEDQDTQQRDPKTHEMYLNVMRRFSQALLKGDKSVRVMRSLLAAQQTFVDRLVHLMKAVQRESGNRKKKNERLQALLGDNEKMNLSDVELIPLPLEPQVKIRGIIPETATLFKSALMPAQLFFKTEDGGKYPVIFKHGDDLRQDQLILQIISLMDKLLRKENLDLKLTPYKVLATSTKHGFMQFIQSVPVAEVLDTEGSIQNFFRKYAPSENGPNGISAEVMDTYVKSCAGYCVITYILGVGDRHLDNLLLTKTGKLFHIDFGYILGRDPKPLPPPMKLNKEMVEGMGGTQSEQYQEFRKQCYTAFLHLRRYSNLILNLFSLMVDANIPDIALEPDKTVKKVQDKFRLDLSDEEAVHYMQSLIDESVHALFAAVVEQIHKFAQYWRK

Row | Percent Inhibition | Compound
1 | 99% | CC(=O)Nc1cc(-c2cnc(Cl)c(NS(=O)(=O)c3cn(C)nc3C(F)(F)F)c2C)ccn1 [Compound I-493, N-[6-chloro-4-methyl-5-({[1-methyl-3-(trifluoromethyl)-1H-pyrazol-4-yl]sulfonyl}amino)-3,4′-bipyridin-2′-yl]acetamide]

Same assay, conditions: compound concentration 1.11 μM; read-out: Percent Inhibition

Row | inhibition at 1.11 µM | Compound
2 | > 99% | CC(=O)Nc1cc(-c2cncc(S(=O)(=O)Nc3ccc(F)cc3F)c2)ccn1 [Compound I-464, N-{5-[(2,4-difluorophenyl)sulfamoyl]-3,4′-bipyridin-2′-yl}acetamide]
3 | 97% | CC(=O)Nc1cc(-c2cnc(C)c(NS(=O)(=O)c3cc(Cl)sc3Cl)c2)ccn1 [Compound I-465, N-(5-{[(2,5-dichloro-3-thienyl)sulfonyl]amino}-6-methyl-3,4′-bipyridin-2′-yl)acetamide]
4 | 92% | Cc1c(-c2ccnc(Nc3ccnc(C4CC4)n3)c2)cnc(Cl)c1C(=O)N1CC(C)(C)C1 [Compound I-466, {6-chloro-2′-[(2-cyclopropylpyrimidin-4-yl)amino]-4-methyl-3,4′-bipyridin-5-yl}(3,3-dimethylazetidin-1-yl)methanone]
5 | > 99% | CC(=O)Nc1cc(-c2cnc(Cl)c(N3CCCN(C)S3(=O)=O)c2)ccn1 [Compound I-467, N-[6-chloro-5-(6-methyl-1,1-dioxido-1,2,6-thiadiazinan-2-yl)-3,4′-bipyridin-2′-yl]acetamide]
6 | > 99% | CC(=O)Nc1cc(-c2cncc(S(=O)(=O)NC34CC5CC(CC(C5)C3)C4)c2)ccn1 [Compound I-468, N-[5-(adamantan-1-ylsulfamoyl)-3,4′-bipyridin-2′-yl]acetamide]
7 | > 99% | CCc1c(-c2ccnc(NC(C)=O)c2)cnc(Cl)c1NS(=O)(=O)c1ccc(F)cc1F [Compound I-469, N-(6-chloro-5-{[(2,4-difluorophenyl)sulfonyl]amino}-4-ethyl-3,4′-bipyridin-2′-yl)acetamide]
8 | > 99% | COc1ncc(-c2ccnc(NC(C)=O)c2)cc1S(=O)(=O)NC12CC(C1)C2 [Compound I-470, N-[5-(bicyclo[1.1.1]pent-1-ylsulfamoyl)-6-methoxy-3,4′-bipyridin-2′-yl]acetamide]
9 | 98% | Cc1nccc(Nc2cc(-c3cnc(C)c(OC4CCCC4)c3)ccn2)n1 [Compound I-471, 5-(cyclopentyloxy)-6-methyl-N-(2-methylpyrimidin-4-yl)-3,4′-bipyridin-2′-amine]
10 | 96% | CC(=O)Nc1cc(-c2cncc(Nc3ncco3)c2)ccn1 [Compound I-472, N-[5-(1,3-oxazol-2-ylamino)-3,4′-bipyridin-2′-yl]acetamide]
11 | 87% | CC(=O)Nc1cc(-c2cnc(Cl)c(N3CCCNS3(=O)=O)c2C)ccn1 [Compound I-473, N-[6-chloro-5-(1,1-dioxido-1,2,6-thiadiazinan-2-yl)-4-methyl-3,4′-bipyridin-2′-yl]acetamide]
12 | 89% | CC(=O)Nc1cc(-c2cncc(S(=O)(=O)N3CCC3)c2)ccn1 [Compound I-474, N-[5-(azetidin-1-ylsulfonyl)-3,4′-bipyridin-2′-yl]acetamide]
13 | > 99% | Cc1nccc(Nc2cc(-c3cnc(C)c(Oc4ccccc4)c3)ccn2)n1 [Compound I-475, 6-methyl-N-(2-methylpyrimidin-4-yl)-5-phenoxy-3,4′-bipyridin-2′-amine]
14 | 87% | CC(=O)Nc1cc(-c2cc(NS(=O)(=O)N(C)C)c3ccnn3c2)ccn1 [Compound I-476, N-(4-{4-[(dimethylsulfamoyl)amino]pyrazolo[1,5-a]pyridin-6-yl}pyridin-2-yl)acetamide]
15 | 93% | CC(=O)Nc1cc(-c2cnc(Cl)c(NS(=O)(=O)N3CC4CCC3C4)c2C)ccn1 (stereo not shown) [Compound I-477, N-{5-[(2-azabicyclo[2.2.1]hept-2-ylsulfonyl)amino]-6-chloro-4-methyl-3,4′-bipyridin-2′-yl}acetamide]
16 | 84% | CC(=O)Nc1cc(-c2cnc(C)c(OS(=O)(=O)c3ccc(F)cc3F)c2)ccn1 [Compound I-478, 2′-acetamido-6-methyl-3,4′-bipyridin-5-yl 2,4-difluorobenzenesulfonate]
17 | 98% | CCOc1cc(-c2ccnc(Nc3ccnc(C)n3)c2)cnc1C [Compound I-479, 5-ethoxy-6-methyl-N-(2-methylpyrimidin-4-yl)-3,4′-bipyridin-2′-amine]
18 | 99% | Cc1nccc(Nc2cc(-c3cc(N)c4ccnn4c3)ccn2)n1 [Compound I-480, 6-{2-[(2-methylpyrimidin-4-yl)amino]pyridin-4-yl}pyrazolo[1,5-a]pyridin-4-amine]
19 | > 99% | CC(=O)Nc1cc(-c2cncc(S(=O)(=O)N3CCN(C)CC3)c2)ccn1 [Compound I-481, N-{5-[(4-methylpiperazin-1-yl)sulfonyl]-3,4′-bipyridin-2′-yl}acetamide]
20 | > 99% | Cc1nccc(Nc2cc(-c3cnc(C)c(NC(=O)N4CC(F)(F)C4)c3)ccn2)n1 [Compound I-482, 3,3-difluoro-N-{6-methyl-2′-[(2-methylpyrimidin-4-yl)amino]-3,4′-bipyridin-5-yl}azetidine-1-carboxamide]
21 | > 99% | CC(=O)Nc1cc(-c2cnc(C)c(NS(=O)(=O)N3CCC(C)(C)CC3)c2)ccn1 [Compound I-483, N-(5-{[(4,4-dimethylpiperidin-1-yl)sulfonyl]amino}-6-methyl-3,4′-bipyridin-2′-yl)acetamide]
22 | 92% | CC(=O)Nc1cc(-c2cnc3c(c2)S(=O)(=O)NCCO3)ccn1 [Compound I-484, N-(4-(1,1-dioxido-3,4-dihydro-2H-pyrido[2,3-b][1,4,5]oxathiazepin-8-yl)pyridin-2-yl)acetamide]
23 | 100% | CC(=O)Nc1cc(-c2cnc(C)c(C(=O)N(C)c3ccc(F)cc3F)c2)ccn1 [Compound I-485, 2′-acetamido-N-(2,4-difluorophenyl)-N,6-dimethyl-3,4′-bipyridine-5-carboxamide]
24 | 84% | Cc1nccc(Nc2cc(-c3cc(NS(=O)(=O)c4ccc(F)cc4F)c4ccnn4c3)ccn2)n1 [Compound I-486, 2,4-difluoro-N-(6-{2-[(2-methylpyrimidin-4-yl)amino]pyridin-4-yl}pyrazolo[1,5-a]pyridin-4-yl)benzenesulfonamide]
25 | 71% | CC(=O)Nc1cc(-c2cnc(N(C)C)c(S(=O)(=O)NC(C)(C)C)c2C)ccn1 [Compound I-487, N-[5-(tert-butylsulfamoyl)-6-(dimethylamino)-4-methyl-3,4′-bipyridin-2′-yl]acetamide]
26 | > 99% | CC(=O)Nc1cc(-c2cnc(Cl)c(NS(=O)(=O)N3CCCC3)c2C)ccn1 [Compound I-488, N-{6-chloro-4-methyl-5-[(pyrrolidin-1-ylsulfonyl)amino]-3,4′-bipyridin-2′-yl}acetamide]
27 | > 99% | CC(=O)Nc1cc(-c2cnc(N)c(N3CCCNS3(=O)=O)c2)ccn1 [Compound I-490, N-[6-amino-5-(1,1-dioxido-1,2,6-thiadiazinan-2-yl)-3,4′-bipyridin-2′-yl]acetamide]
28 | 98% | CC(=O)Nc1cc(-c2cnc(N(C)C)c(S(=O)(=O)Nc3ccc(F)cc3F)c2)ccn1 [Compound I-491, N-{5-[(2,4-difluorophenyl)sulfamoyl]-6-(dimethylamino)-3,4′-bipyridin-2′-yl}acetamide]
29 | 86% | CC(=O)Nc1cc(-c2cnc(C)c(OCC3CC3)c2)ccn1 [Compound I-492, N-[5-(cyclopropylmethoxy)-6-methyl-3,4′-bipyridin-2′-yl]acetamide]
30 | 91% | CC(=O)Nc1cc(-c2cnc(C)c(NS(=O)(=O)N(C)c3ccccc3)c2)ccn1 [Compound I-494, N-(6-methyl-5-{[methyl(phenyl)sulfamoyl]amino}-3,4′-bipyridin-2′-yl)acetamide]
31 | 83% | Cc1nccc(Nc2cc(-c3cnc(C)c(C(=O)N4CC(C)(C)C4)c3)ccn2)n1 [Compound I-495, (3,3-dimethylazetidin-1-yl){6-methyl-2′-[(2-methylpyrimidin-4-yl)amino]-3,4′-bipyridin-5-yl}methanone]
